Activity calls are given as the source filed them.
How the values were obtained:
[1] = target: G-protein coupled receptor 55 (Homo sapiens, UniProt Q9Y2T6); test: GPR55 antagonists blocking LPI-driven arrestin recruitment, primary screen, imaging, U2OS, beta-arrestin-GFP, LPI agonist (AID 2013); assay type: functional;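 also: antagonist potency measured as reduced agonist-driven arrestin aggregation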
HEK293 [2] = test: NOD2 signaling inhibitors in MDP-stimulated cells, cell-based, uHTS, luminescence (AID 2001); assay type: functional; conditions: Homo sapiens
HEK293 [3] = test: NOD1 signaling inhibitors, primary screen, cell-based, luminescence, uHTS (AID 1578); assay type: functional; conditions: Homo sapiens
HEK293 [4] = test: cells; assay type: functional, cell-based; conditions: Homo sapiens
[5] = CRF-BP/CRF-R2 complex antagonists, dose response, cell-based, uHTS hits, 384-well (AID 651639); assay type: functional, Homo sapiens; conditions: read-out: IC50_Mean
HEK293 [6] = test: cells; assay type: functional, cell-based; conditions: Homo sapiens; remark: listed apart in the source
[7] = target: T1, Corticotropin-releasing factor receptor 2/Corticotropin-releasing factor-binding protein (Homo sapiens, UniProt P24387+Q13324); test: activators of CRF receptor 2 with binding protein – uHTS hits, confirmation (AID 602473); assay type: functional; conditions: read-out: EC50_Mean
T1 sequence (Q13324 whole entry): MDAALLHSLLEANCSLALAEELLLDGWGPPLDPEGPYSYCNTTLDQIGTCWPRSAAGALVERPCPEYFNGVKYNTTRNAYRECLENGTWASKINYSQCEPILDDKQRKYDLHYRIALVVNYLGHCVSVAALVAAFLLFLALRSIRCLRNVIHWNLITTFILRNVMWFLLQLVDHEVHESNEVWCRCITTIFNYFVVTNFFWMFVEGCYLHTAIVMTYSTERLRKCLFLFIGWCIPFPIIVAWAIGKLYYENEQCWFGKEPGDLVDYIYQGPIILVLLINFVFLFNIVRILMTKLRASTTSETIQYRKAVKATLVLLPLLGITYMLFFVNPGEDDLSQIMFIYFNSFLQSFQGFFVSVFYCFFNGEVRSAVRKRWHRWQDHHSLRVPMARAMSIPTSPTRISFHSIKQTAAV
T1 sequence (P24387 whole entry): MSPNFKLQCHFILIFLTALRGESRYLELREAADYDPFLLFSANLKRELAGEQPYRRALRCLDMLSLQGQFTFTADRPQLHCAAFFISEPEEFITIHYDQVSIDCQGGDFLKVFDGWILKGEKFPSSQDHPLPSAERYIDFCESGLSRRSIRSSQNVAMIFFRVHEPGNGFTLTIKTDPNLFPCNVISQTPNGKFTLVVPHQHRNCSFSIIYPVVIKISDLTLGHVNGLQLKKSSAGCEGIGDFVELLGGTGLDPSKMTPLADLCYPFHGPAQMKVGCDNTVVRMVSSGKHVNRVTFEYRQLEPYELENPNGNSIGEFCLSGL

HEK293 [8] = test: cells; assay type: functional, cell-based; conditions: Homo sapiens; remark: listed apart in the source
[9] = target: Nucleotide-binding oligomerization domain-containing protein 2 (Homo sapiens, UniProt Q9HC29); test: NOD2 signaling inhibitors, cell-based, luminescence, uHTS, HEK293 (AID 1566); assay type: functional
[10] = target: T1, Corticotropin-releasing factor receptor 2/Corticotropin-releasing factor-binding protein; test: Dose Response confirmation of uHTS hits for small molecule antagonists of the CRF-binding protein and CRF-R2 receptor complex.; assay type: functional; conditions: read-out: IC50_Mean
Mucolipin-3 = target: T2, Mucolipin-3 (Homo sapiens, UniProt Q8TDD5); test: Fluorescence counterscreen assay for […] agonists: dose response cell-based high-throughput screening assay to identify agonists of the transient receptor potential channel ML3 (TRPML3). [Related pubchem assays: 1424, 1448 ]; assay type: functional
T2 sequence (Q8TDD5 whole entry): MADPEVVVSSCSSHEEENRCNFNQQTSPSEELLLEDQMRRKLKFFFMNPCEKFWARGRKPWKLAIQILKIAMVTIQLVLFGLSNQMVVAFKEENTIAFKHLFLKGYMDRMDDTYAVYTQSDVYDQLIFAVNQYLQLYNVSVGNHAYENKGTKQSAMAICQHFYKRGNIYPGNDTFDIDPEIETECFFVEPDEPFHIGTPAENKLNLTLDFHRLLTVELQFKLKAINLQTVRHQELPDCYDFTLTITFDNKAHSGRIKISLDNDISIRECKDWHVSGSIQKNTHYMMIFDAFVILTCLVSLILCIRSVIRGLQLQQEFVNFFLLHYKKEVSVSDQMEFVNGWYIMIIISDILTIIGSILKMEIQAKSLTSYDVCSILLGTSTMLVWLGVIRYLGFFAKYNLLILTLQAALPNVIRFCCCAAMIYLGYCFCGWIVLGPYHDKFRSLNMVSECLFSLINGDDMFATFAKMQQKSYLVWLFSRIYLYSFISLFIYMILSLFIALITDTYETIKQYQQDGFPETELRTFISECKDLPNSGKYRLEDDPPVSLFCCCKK

Ion channel NompC = Ion channel NompC (Danio rerio, UniProt Q7T1G6); test: Dose response cell-based high-throughput screening assay for agonists of the transient receptor potential channel N1 (TRPN1). [Related pubchem assays (depositor defined):AID1424, AID1448]; assay type: functional
Sequence of Ion channel NompC (Q7T1G6 whole entry): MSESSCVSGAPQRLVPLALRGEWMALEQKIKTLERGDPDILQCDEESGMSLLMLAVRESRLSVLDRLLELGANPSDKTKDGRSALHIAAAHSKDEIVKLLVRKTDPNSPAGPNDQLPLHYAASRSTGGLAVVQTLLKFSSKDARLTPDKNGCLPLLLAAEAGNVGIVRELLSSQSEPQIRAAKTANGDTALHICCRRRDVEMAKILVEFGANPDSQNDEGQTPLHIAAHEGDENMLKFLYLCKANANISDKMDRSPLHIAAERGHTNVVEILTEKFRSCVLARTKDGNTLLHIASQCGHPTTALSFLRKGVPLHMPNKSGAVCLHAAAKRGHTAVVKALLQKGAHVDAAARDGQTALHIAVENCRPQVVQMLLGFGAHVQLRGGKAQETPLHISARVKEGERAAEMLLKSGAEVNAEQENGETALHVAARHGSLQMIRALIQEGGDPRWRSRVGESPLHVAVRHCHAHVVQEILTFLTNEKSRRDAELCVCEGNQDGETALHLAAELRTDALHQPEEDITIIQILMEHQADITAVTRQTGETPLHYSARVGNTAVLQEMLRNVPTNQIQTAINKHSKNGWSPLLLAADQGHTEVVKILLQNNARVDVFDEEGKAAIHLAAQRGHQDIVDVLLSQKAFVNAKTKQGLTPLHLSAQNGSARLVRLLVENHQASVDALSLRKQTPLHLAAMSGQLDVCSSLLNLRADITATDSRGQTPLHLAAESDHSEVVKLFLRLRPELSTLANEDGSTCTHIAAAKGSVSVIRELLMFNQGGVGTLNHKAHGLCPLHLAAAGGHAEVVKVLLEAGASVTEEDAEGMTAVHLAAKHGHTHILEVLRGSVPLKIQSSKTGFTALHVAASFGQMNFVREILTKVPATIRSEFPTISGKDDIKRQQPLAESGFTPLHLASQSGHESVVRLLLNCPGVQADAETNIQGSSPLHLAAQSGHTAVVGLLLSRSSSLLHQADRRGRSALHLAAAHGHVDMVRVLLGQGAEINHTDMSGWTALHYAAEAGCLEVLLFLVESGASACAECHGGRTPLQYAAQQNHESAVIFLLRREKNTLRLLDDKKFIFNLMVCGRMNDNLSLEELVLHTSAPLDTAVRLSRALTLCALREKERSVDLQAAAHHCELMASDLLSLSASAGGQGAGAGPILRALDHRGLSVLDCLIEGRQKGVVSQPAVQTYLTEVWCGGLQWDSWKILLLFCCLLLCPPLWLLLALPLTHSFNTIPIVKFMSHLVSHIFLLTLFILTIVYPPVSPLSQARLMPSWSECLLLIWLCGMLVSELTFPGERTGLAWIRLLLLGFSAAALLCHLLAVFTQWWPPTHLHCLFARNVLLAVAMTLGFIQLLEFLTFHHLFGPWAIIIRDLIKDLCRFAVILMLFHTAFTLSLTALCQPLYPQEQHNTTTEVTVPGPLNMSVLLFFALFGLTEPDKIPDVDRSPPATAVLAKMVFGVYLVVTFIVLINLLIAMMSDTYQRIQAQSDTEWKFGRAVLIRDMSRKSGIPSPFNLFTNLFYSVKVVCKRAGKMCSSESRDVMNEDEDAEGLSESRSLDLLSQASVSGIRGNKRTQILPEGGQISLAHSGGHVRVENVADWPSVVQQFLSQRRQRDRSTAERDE

Sequence of Nucleotide-binding oligomerization domain-containing protein 2 (Q9HC29 whole entry, the tested form may be a part): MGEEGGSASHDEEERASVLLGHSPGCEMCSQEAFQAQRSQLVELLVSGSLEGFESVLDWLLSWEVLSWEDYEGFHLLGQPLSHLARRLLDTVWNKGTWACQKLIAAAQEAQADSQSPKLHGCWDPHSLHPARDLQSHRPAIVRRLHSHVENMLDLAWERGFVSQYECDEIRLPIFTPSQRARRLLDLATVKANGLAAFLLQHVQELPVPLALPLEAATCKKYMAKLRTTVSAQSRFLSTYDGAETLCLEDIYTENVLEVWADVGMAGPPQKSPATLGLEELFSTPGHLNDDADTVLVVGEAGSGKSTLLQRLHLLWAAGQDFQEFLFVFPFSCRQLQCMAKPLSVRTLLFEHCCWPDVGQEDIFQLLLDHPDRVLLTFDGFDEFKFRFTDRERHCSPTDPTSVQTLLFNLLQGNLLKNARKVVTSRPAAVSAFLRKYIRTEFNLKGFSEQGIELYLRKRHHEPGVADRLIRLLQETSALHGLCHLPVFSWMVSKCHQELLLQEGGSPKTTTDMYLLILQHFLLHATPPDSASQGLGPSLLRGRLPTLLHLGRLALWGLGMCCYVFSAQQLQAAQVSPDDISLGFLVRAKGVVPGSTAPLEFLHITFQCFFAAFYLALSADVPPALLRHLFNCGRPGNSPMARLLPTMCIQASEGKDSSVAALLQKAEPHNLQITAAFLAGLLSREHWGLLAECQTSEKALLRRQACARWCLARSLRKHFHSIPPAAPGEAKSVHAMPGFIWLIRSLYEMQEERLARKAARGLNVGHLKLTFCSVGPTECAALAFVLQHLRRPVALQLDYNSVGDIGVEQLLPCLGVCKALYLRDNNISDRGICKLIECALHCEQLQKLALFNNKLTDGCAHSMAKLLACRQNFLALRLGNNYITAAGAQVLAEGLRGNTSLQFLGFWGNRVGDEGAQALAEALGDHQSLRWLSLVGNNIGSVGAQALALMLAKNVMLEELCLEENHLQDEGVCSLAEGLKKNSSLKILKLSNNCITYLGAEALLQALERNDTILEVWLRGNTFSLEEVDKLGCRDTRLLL
Sequence of G-protein coupled receptor 55 (Q9Y2T6 whole entry): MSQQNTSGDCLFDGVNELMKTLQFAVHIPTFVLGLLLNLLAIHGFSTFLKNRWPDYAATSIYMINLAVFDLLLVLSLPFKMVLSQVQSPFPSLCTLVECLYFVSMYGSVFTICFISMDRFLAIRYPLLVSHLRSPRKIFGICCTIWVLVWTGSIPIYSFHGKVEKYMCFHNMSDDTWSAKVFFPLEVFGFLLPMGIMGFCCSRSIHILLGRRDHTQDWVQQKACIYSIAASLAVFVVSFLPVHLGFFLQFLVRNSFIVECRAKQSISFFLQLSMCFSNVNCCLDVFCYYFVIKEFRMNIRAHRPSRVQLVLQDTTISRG

IC50 [1] | SMILES | IC50 (HEK293 [2]) | EC50 (HEK293 [3]) | IC50 (HEK293 [4]) | IC50 [5] | IC50 (HEK293 [6]) | EC50 [7] | IC50 (HEK293 [8]) | EC50 [9] | IC50 [10] | EC50 (Mucolipin-3) | EC50 (Ion channel NompC)
7.26 µM (active) | NC(=O)c1cc(-c2ccccc2)nc(N2CCOCC2)n1 |  |  |  |  |  |  |  |  |  |  | 
 | COC(=O)c1ccc(NC(=O)c2ccccc2NS(=O)(=O)c2ccccc2)cc1 | 7.55 µM (active) | 2.34 µM (active) | > 20 µM (inactive) | > 20 µM (inactive) | 12.9 µM (active) | > 53 µM (inactive) | > 20 µM (inactive) | 6.09 µM (active) | 0.506 µM (active) | > 29.9 µM (not active) | > 29.9 µM (inactive)
